Data set [1] relates to B16F10 mouse melanoma cells. Briefly: Inhibition of melanin production. It counts as cell-based. The following applies: 72 h; for inhibition at 20 µg/mL: B16-F10, 20 μg/mL. The protocol:
(§1) Also inhibitions of the compounds 5a–5f were tested on melanin production and their cytotoxicity on B16F10 mouse melanoma cells at concentrations of 20 μg/mL.
Melanin production inhibition was ascertained by method of Wang et al.. A total of 8 × 10^4 cells were added to 60 mm plates and were incubated at 37°C in a CO2 incubator, then, 10 μL test samples in DMSO were added to plates and were incubated for 72 hours at 37°C in a CO2 incubator. After washing with PBS, cells were destroyed with 1 mL of 1 N NaOH, and 200 μL portions of raw cell extracts were moved to 96-well plates. Melanin production inhibition was determined by recording absorbance at 495 nm. The effects of test samples on melanin contents are stated as percent inhibitions of the value obtained in B16F10 mouse melanoma cells which were cultured with DMSO alone.

In a further data set the target is mushroom tyrosinase. As to the kind of experiment: Tyrosinase inhibition assay (diphenolase activity, L-DOPA substrate). It counts as biochemical. The following applies: L-DOPA 0.5 mM, pH 6.8, 25°C, mean ± SEM, read-out: IC50 ± SEM, tyrosinase inhibitory activity. The protocol:
The spectrophotometric assay for tyrosinase was performed according to the method Ref 15. Briefly, all the synthesized compounds were screened for the diphenolase inhibitory activity of tyrosinase using L-DOPA as substrate. All the compounds were dissolved in DMSO. The final concentration of DMSO in the test solution was 2.0%. Phosphate buffer, pH=6.8, was used to dilute the DMSO stock solution of test compounds. Thirty units of mushroom tyrosinase (0.5 mg/mL) were first preincubated with the compounds, in 50 mM phosphate buffer (pH 6.8), for 10 min at 25°C. Then the L-DOPA (0.5 mM) was added to the reaction mixture, and the enzyme reaction was monitored by measuring the change in absorbance at 475 nm of formation of the L-DOPA chrome for 10 min. The measurement was performed in triplicate for each concentration and averaged before further calculation. […] The percent of inhibition of tyrosinase reaction was calculated as the following: Inhibition (%) = [B−S/B] × 100. Here, the B and S are the absorbances for the blank and samples.

Another data set is described as follows: Cytotoxicity assay (MTT). The following applies: B16F10 mouse melanoma cells, read-out: Cytotoxicity cell viability (%). It counts as cell-based. The protocol: as §1
Cytotoxicity assays were performed using a microculture MTT method described by Han et al.. A B16F10 mouse melanoma cell suspension was poured into a 96-well plate (10^3 cells/well), and cells were allowed to completely stick […] overnight. Test samples were then added to the plate and were incubated at 37°C for 72 h in a CO2 incubator. 20 μL of MTT solution (2 mg/mL) was then added per well and incubated for 4 hours. Supernatant was then removed, and formazan was solubilized by adding 150 μL DMSO to each well with mild shaking. Absorbance at 490 nm was recorded using an ELISA plate reader.

`CC(=O)Oc1ccc2ccccc2c1/N=N/c1ccc(C(=O)N/C(=C/c2ccc(F)cc2)C(=O)Sc2ccc(C)cc2S)cc1` [Compound 5e, 1-[(E)-2-(4-{[((E)-2-(4-fluorophenyl)-1-{[(4-methyl-2-sulfanylphenyl)sulfanyl]carbonyl}-1-ethenyl)amino]carbonyl}phenyl)-1-diazenyl]-2-naphthyl Acetate]: the melting point was 325 °C (dec.). The compound further came in with an inhibition at 20 µg/mL in data set [1] of 36.8 ± 1.44%. Moreover, the IC50 on mushroom tyrosinase came to 1980 ± 390 nM. Further, the viability at 72 h, 20 μg/mL in the data set “Cytotoxicity assay (MTT)” amounted to 81.9 ± 1.08%.

Take `Cc1ccc(SC(=O)/C(=C\c2ccc(OC(F)(F)F)cc2)NC(=O)c2ccc(/N=N/c3ccc(N(C)C)cc3)cc2)c(S)c1` [Compound 5b, 4-Methyl-2-sulfanylphenyl(E)-2-[(4-{(E)-2-[4-(dimethylamino)phenyl]-1-diazenyl}benzoyl)amino]-3-[4-(trifluoromethoxy)phenyl]-2-propenethioate]: the melting point is 286 °C (dec.). Moreover, in data set [1], testing at 20 µg/mL gave an inhibition of 41 ± 4.33%. Moreover, the IC50 on mushroom tyrosinase stood at 3860 ± 660 nM. Moreover, the viability at 72 h, 20 μg/mL in the data set “Cytotoxicity assay (MTT)” amounted to 80.1 ± 1.89%.

Consider `CC(=O)Oc1c(/N=N/c2ccc(C(=O)N/C(=C/c3ccc(OC(F)(F)F)cc3)C(=O)Sc3ccc(C)cc3S)cc2)ccc2ccccc12` [Compound 5d, 2-((E)-2-{4-[({(E)-1-{[(4-Methyl-2-sulfanylphenyl)sulfanyl]carbonyl}-2-[4-(trifluoromethoxy)phenyl]-1-ethenyl}amino)carbonyl]phenyl}-1-diazenyl)-1-naphthyl Acetate], for which the melting point is 318 °C (dec.). This compound came in with an inhibition at 20 µg/mL in data set [1] of 37.5 ± 4.09%. For the same compound, on mushroom tyrosinase, the IC50 was 2480 ± 880 nM. The viability at 72 h, 20 μg/mL in the data set “Cytotoxicity assay (MTT)” was determined as 84.7 ± 5.38%.

On to `O=c1cc(CO)occ1O` [Kojic acid, reference compound], for which, in data set [1] (B16-F10, tested at 200 µg/mL), the inhibition at 200 µg/mL amounted to 17.3 ± 1.29%. Moreover, the viability at 72 h, 200 µg/mL in the data set “Cytotoxicity assay (MTT)” (tested at 200 µg/mL) stood at 81.7 ± 1.23%.

Take `CC(=O)Oc1ccc2ccccc2c1/N=N/c1ccc(C(=O)N/C(=C/c2ccc(OC(F)(F)F)cc2)C(=O)Sc2ccc(C)cc2S)cc1` [Compound 5f, 1-((E)-2-{4-[({(E)-1-{[(4-Methyl-2-sulfanylphenyl)sulfanyl]carbonyl}-2-[4-(trifluoromethoxy)phenyl]-1-ethenyl}amino)carbonyl]phenyl}-1-diazenyl)-2-naphthyl Acetate]: the melting point was 320 °C (dec.). Also, in data set [1], the inhibition at 20 µg/mL is 34.7 ± 2.22%. For the same compound, the IC50 at mushroom tyrosinase stood at 1710 ± 490 nM. The viability at 72 h, 20 μg/mL in “Cytotoxicity assay (MTT)” came to 80.6 ± 2.65%.

For `Cc1ccc(SC(=O)/C(=C\c2ccc(F)cc2)NC(=O)c2ccc(/N=N/c3ccc(N(C)C)cc3)cc2)c(S)c1` [Compound 5a, 4-Methyl-2-sulfanylphenyl(E)-2-[(4-{(E)-2-[4-(dimethylamino)phenyl]-1-diazenyl}benzoyl)amino]-3-(4-fluorophenyl)-2-propenethioate], the melting point was 293 °C (dec.). This compound also showed an inhibition at 20 µg/mL in data set [1] of 42.1 ± 0.75%. Further, on mushroom tyrosinase, the concentration for half-maximal inhibition (IC50) amounted to 4390 ± 760 nM. Besides, the viability at 72 h, 20 μg/mL in the data set “Cytotoxicity assay (MTT)” came out at 82.2 ± 3.55%.

`CC(=O)Oc1c(/N=N/c2ccc(C(=O)N/C(=C/c3ccc(F)cc3)C(=O)Sc3ccc(C)cc3S)cc2)ccc2ccccc12` [Compound 5c, 2-[(E)-2-(4-{[((E)-2-(4-fluorophenyl)-1-{[(4-methyl-2-sulfanylphenyl)sulfanyl]carbonyl}-1-ethenyl)amino]carbonyl}phenyl)-1-diazenyl]-1-naphthyl Acetate]: the melting point is 308 °C (dec.). The compound further had an inhibition at 20 µg/mL in data set [1] of 35.9 ± 3.11%. Also, the half-inhibitory concentration (IC50) at mushroom tyrosinase came to 2680 ± 550 nM. In addition, the viability at 72 h, 20 μg/mL in “Cytotoxicity assay (MTT)” was 83.2 ± 2.22%.

Broadly, the inhibition is the share of the control response that was lost under treatment. High values mean strong suppression, low ones little suppression. The term IC50 denotes the concentration at which inhibition is half-maximal. As usually defined, the viability is the share of living cells, or the viability signal relative to a control. As usually defined, the melting point is the temperature, or range, at which the solid turns liquid.

Source of the values: paper PMC3821907, “Synthesis of Novel Compounds as New Potent Tyrosinase Inhibitors” (BioMed Research International, 2013).
